No end group written: not given here.
What was measured:
Experiment in all cases: REVEAL Epitope Discovery System in vitro MHC-peptide binding assay
HLA-B*08:01 = HLA-B*08:01 (Homo sapiens, UniProt P01889, A93T/A95T/D138N/E176V/E187T/K202T/Q94N/R180D/S35A/V36M/Y33D/Y91F); details: binding normalized to positive control peptide set at 100%, >50 considered good or high affinity binding
Protocol: (§1) Actual binding affinities for certain HLA class I alleles (A*02:01, A*03:01, A*11:01, and B*08:01) were assessed in vitro for exemplary overlapping 9 amino acid peptide sequences within a portion of the 26 amino acid junction region spanning the CD28 and 4-1BB junction. Specifically, assessment was of a series of overlapping 9-mer peptides derived from the sequence […] (set forth in SEQ ID NO: 7), which contains a portion of the CD28 transmembrane domain and 4-1BB costimulatory domain spanning the junction between the domains (bond joining the two amino acids noted in underline). In addition, a series of overlapping 9-mer peptides of each of a number of different variants of this portion also were assessed, each variant containing a mutation or mutations in this region as described in Example 2.
(§2) The various 9-mer overlapping peptides were synthesized and their purity tested by MALDI-TOF Mass Spectrometry. The synthetic peptides were then incubated with recombinant MHC molecules to assess binding properties using the REVEAL Epitope Discovery System, which is a high-throughput binding assay that measures the degree to which each peptide is able to stabilize a ternary MHC-peptide complex (Prolmmune, Oxford, United Kingdom). Each peptide was separately tested for this ability with respect to each of the HLA class I alleles, normalized to the degree observed for a positive control (known T cell epitope for the relevant allele). The results are reported as a score, in which the binding was normalized to the positive control peptide set at 100%. In this analysis, a score of greater than 50 generally was considered to represent good or high affinity binding.

HLA-A*03:01 = HLA-A*03:01 (Homo sapiens, UniProt P04439); details: REVEAL score, binding normalized to positive control peptide set at 100%; greater than 50 considered good or high affinity binding
Protocol: as §1, §2

HLA-A*02:01 = HLA-A*02:01 (Homo sapiens, UniProt P04439, D140Y/D185E/D98H/E176V/E277Q/G131W/G231S/I119V/I121R/I166T/I218V/L300P/L318F/N151K/N90K/P208A/P217A/Q86G/Q94H/R138H/R169H/T345S); details: binding normalized to positive control peptide set at 100%, greater than 50 considered good or high affinity binding
Protocol: as §1, §2

HLA-A*11:01 = HLA-A*11:01 (Homo sapiens, UniProt P04439, A114D/D185E/E176A/F33Y/L180Q/S129P/T187R); details: binding normalized to positive control peptide set at 100%, >50 considered good or high affinity binding
Protocol: as §1, §2

Molecule	B*08:01 In Vitro Score (HLA-B*08:01)	A*03:01 In Vitro (HLA-A*03:01)	A*02:01 In Vitro Score (HLA-A*02:01)	A*11:01 In Vitro Score (HLA-A*11:01)
VAFIIFWVR	0.10	0.70	1.20	34.60
FWVQRGAKK	0.00	2.70	2.20	18.30
CC(C)C[C@H](NC(=O)[C@H](CCCCN)NC(=O)[C@H](CCCCN)NC(=O)[C@H](CCCNC(=N)N)NC(=O)CNC(=O)[C@H](CCCNC(=N)N)NC(=O)[C@H](CCC(N)=O)NC(=O)[C@@H](NC(=O)[C@@H](N)Cc1c[nH]c2ccccc12)C(C)C)C(=O)O	45.10	4.90	8.10	12.80
CC(C)C[C@H](NC(=O)[C@H](CCCCN)NC(=O)[C@H](CCCCN)NC(=O)[C@H](CO)NC(=O)CNC(=O)[C@H](CCCNC(=N)N)NC(=O)[C@H](CCC(N)=O)NC(=O)[C@@H](NC(=O)[C@@H](N)Cc1c[nH]c2ccccc12)C(C)C)C(=O)O		1.20	4.40	5.90
IIFWVQRGN	0.00	3.60	13.00	29.00
CC(C)C[C@H](NC(=O)CNC(=O)[C@H](CCCNC(=N)N)NC(=O)[C@H](CCCCN)NC(=O)[C@@H](NC(=O)[C@H](Cc1c[nH]c2ccccc12)NC(=O)[C@@H](N)Cc1ccccc1)C(C)C)C(=O)N[C@@H](CCCCN)C(=O)N[C@@H](CCCCN)C(=O)O	6.30	2.70	9.40	25.30
CC[C@H](C)[C@H](N)C(=O)N[C@H](C(=O)N[C@@H](Cc1ccccc1)C(=O)N[C@@H](Cc1c[nH]c2ccccc12)C(=O)N[C@H](C(=O)N[C@@H](CCCCN)C(=O)N[C@@H](CCCNC(=N)N)C(=O)NCC(=O)N[C@@H](CO)C(=O)O)C(C)C)[C@@H](C)CC	0.40	16.20	13.60	100.00
IFWVKRGLK	58.30	26.90	2.40	61.10
WVKRGHKKL	47.60	1.40	3.90	2.80
WVSRGRKKL	6.20	2.10	2.30	4.40
FIIFWVQRG	0.60	0.40	16.80	1.50
WVHRGRKKL	19.20	3.40	1.60	5.60
FIIFWVKRG	0.10	1.40	10.10	0.40
IIFWVKRGH	0.10	26.60	5.30	19.50
FWVKRGRKK	0.00	2.20	3.50	6.50
FWVKRGAKK	0.30	4.70	4.30	13.20
IFWVQRGAK	0.20	17.00	11.70	61.30
CC(C)C[C@H](NC(=O)[C@H](CCCCN)NC(=O)[C@H](CCCCN)NC(=O)[C@H](CCCNC(=N)N)NC(=O)CNC(=O)[C@H](CCCNC(=N)N)NC(=O)[C@H](C)NC(=O)[C@@H](NC(=O)[C@@H](N)Cc1c[nH]c2ccccc12)C(C)C)C(=O)O	32.40	1.30	8.80	13.80
IIFWVKRGR	0.00	24.30	1.70	54.50
IFWVKRGSK	1.20	10.40	2.40	47.90
VAFIIFWVL	0.00	0.00	0.20	0.20

Molecule	B*08:01 In Vitro Score (HLA-B*08:01)	A*03:01 In Vitro (HLA-A*03:01)	A*02:01 In Vitro Score (HLA-A*02:01)	A*11:01 In Vitro Score (HLA-A*11:01)
CC[C@H](C)[C@H](N)C(=O)N[C@@H](Cc1ccccc1)C(=O)N[C@@H](Cc1c[nH]c2ccccc12)C(=O)N[C@H](C(=O)N[C@@H](CCCCN)C(=O)N[C@@H](CCCNC(=N)N)C(=O)NCC(=O)N[C@@H](Cc1c[nH]cn1)C(=O)N[C@@H](CCCCN)C(=O)O)C(C)C	3.20	9.00	2.20	30.90
IFWVARGRK	0.00	53.70	1.00	34.90
IFWVLRGRK	0.00	19.50	2.90	29.30
IIFWVKRGL	1.70	15.90	82.20	32.40
FWVQRGRKK	1.90	6.40	5.20	5.70
WVKRGAKKL	34.10	4.10	4.70	4.60
IFWVHRGRK	0.10	37.80	7.10	36.60
FWVKRGSKK	0.10	5.90	1.90	5.60
FWVKRGHKK	0.40	4.10	2.60	27.60
WVQRGNKKL	32.00	1.50	4.30	10.70
WVKRGLKKL	65.70	10.00	24.50	22.10
WVKRGSKKL	56.10	1.90	3.00	11.80
FWVHRGRKK	0.00	3.60	1.60	5.60
FWVQRGSKK	0.00	1.90	0.80	6.80
WVQRGNKKA	0.70	1.20	1.90	0.80
FIIFWVLRG	0.20	0.10	7.20	2.40
IFWVQRGRK	0.00	36.70	6.10	128.50
CC(C)[C@H](NC(=O)[C@H](Cc1c[nH]c2ccccc12)NC(=O)[C@@H](N)Cc1ccccc1)C(=O)N[C@@H](CCCCN)C(=O)N[C@@H](CCCNC(=N)N)C(=O)NCC(=O)N[C@@H](CC(N)=O)C(=O)N[C@@H](CCCCN)C(=O)N[C@@H](CCCCN)C(=O)O	0.10	3.60	8.70	7.30
AFIIFWVQR	0.00	0.20	0.40	15.00
CC[C@H](C)[C@H](NC(=O)[C@H](Cc1ccccc1)NC(=O)[C@H](C)N)C(=O)N[C@H](C(=O)N[C@@H](Cc1ccccc1)C(=O)N[C@@H](Cc1c[nH]c2ccccc12)C(=O)N[C@H](C(=O)N[C@@H](CCCNC(=N)N)C(=O)N[C@@H](CCCNC(=N)N)C(=O)O)C(C)C)[C@@H](C)CC	0.30		1.40	1.50
